The source of these data is patent publication US20130123201A1, “MODULATION OF CYTOKINE-INDUCED CHRONIC INFLAMMATORY RESPONSES” (UNIVERSITY OF MANITOBA, priority 2010, published 2013).

Values joined by “and” are separate entries in the source; they are usually repeats but may differ in a detail not shown here. Identical values can stand only once.

One assay concerns phospho-p300 (Ser1834). In words: Immunoblot with phospho-p300 (Ser1834) antibody. The class given is cell-based, human. The settings on record: within 15 min, compared to un-stimulated cells. Here is the method:
(§1) Immunoblots: Cell lysates were prepared in lysis buffer containing 20 mM Tris-HCl pH 7.5, 150 mM NaCl, 1 mM EDTA, 1 mM EGTA, 1 mM sodium fluoride, 1 mM sodium orthovanadate, 2.5 mM sodium pyrophosphate, protease inhibitor cocktail (Sigma-Aldrich) and 1% (v/v) Triton X-100. The lysates were electrophoretically resolved on a 4-12% NuPAGE® Bis-Tris gels (Invitrogen Corporation, Burlington, ON, Canda), followed by transfer to nitrocellulose membranes (Millipore, Canada). The membranes were subsequently probed with either phospho-p300 (Ser1834) polyclonal antibody, monoclonal antibody against phospho-DAPK (Ser308) or monoclonal antibody to glyceraldehyde-3-phosphate dehydrogenase (GAPDH) in TBST (20 mM Tris pH 7.5, 150 mM NaCl, 0.1% Tween 20) containing 5% skimmed milk powder. Affinity purified HRP-linked horse anti-mouse or goat anti-rabbit antibodies were used for detection as required. The membranes were development with Amersham ECL detection system (GE Healthcare, Baie d'Urfe QC, Canada) according to the manufacturer's instructions.
(§2) Immunoblots: Cell lysates were prepared in lysis buffer containing 20 mM Tris-HCl pH 7.5, 150 mM NaCl, 1 mM EDTA, 1 mM EGTA, 1 mM sodium fluoride, 1 mM sodium orthovanadate, 2.5 mM sodium pyrophosphate, protease inhibitor cocktail (Sigma-Aldrich Canada Inc.) and 1% (v/v) Triton X-100. […]
For orientation: A western blot detects proteins with antibodies after separation by electrophoresis.

The subject of a further assay is phospho-DAPK (Ser308). In words: Immunoblot with phospho-DAPK (Ser308) antibody. Format: cell-based, human. The settings on record: within 15 min, compared to un-stimulated cells. Here is the method:
as §1, §2

Assay [1] relates to Human macrophage-like THP-1 cells. In words: Kinome profiling with peptide arrays of kinase phosphorylation targets. The class given is cell-based. The settings on record: cytokine 20 ng/mL, 15 min, relative to un-stimulated control cells. Here is the method: Kinome profiling: Human monocytic THP-1 cells were differentiated to plastic-adherent macrophage-like cells by treatment with PMA as described above, the cells were rested for 24 hr and then stimulated with either IL-32 (20 ng/mL) or IL-17 (20 ng/mL) for 15 min.
Subsequently, cellular lysates were prepared in lysis buffer (containing 20 mM Tris-HCl pH 7.5, 150 mM NaCl, 1 mM EDTA, 1 mM EGTA, 1 mM sodium fluoride, 1 mM sodium orthovanadate, 2.5 mM sodium pyrophosphate, protease inhibitor cocktail (Sigma-Aldrich) and 1% (v/v) Triton X-100, as taught by Jalal et al. (2009, Genome to kinome: species-specific peptide arrays for kinome analysis. Sci. Signal 2:11). Peptide arrays representing phosphorylation targets of kinase activity were incubated with the cellular lysates for quantifying global kinase activity following the methods disclosed by Jalal et al. (2009). The trends of protein phosphorylation events upon stimulation with IL-32 and IL-17 were comprehensively analysed after normalization and background correction of signal strength following the methods disclosed by Jalal et al. (2009). The phosphorylations of the peptides on the array were quantitated in the cytokine-treated cells relative to the un-stimulated control cells.
Kinome profiling: Human macrophage-like THP-1 cells were differentiated to plastic-adherent macrophage-like cells by treatment with PMA as described above, after which the cells were rested for 24 hr and then stimulated with either IL-32 (20 ng/mL) or IL-17 (20 ng/mL) for 15 min. Subsequently, cellular lysates were prepared in lysis buffer (containing 20mM Tris-HCl pH 7.5, 150 mM NaCl, 1 mM EDTA, 1 mM EGTA, 1 mM sodium fluoride, 1 mM sodium orthovanadate, 2.5 mM sodium pyrophosphate, protease inhibitor cocktail (Sigma-Aldrich Canada Inc.) and 1% (v/v) Triton X-100, as taught by Mookherjee et al. (2006). Peptide arrays representing phosphorylation targets of kinase activity were incubated with the cellular lysates for quantifying global kinase activity as taught by Jalal et al. (2009, Genome to kinome: species-specific peptide arrays for kinome analysis. Sci. Signal 2:11). The trends of protein phosphorylation events upon stimulation with IL-32 and IL-17 were comprehensively analysed after normalization and background correction of signal strength as taught by Jalal et al. (2009). The phosphorylations of the peptides on the array were quantitated in the cytokine-treated cells relative to the un-stimulated control cells.
Differential phosphorylation events in THP-1 cells stimulated by IL-32 and IL-17: THP-1 cells were stimulated with either IL-17 (20 ng/ml) or IL-32 (20 ng/ml) for 15 min. The cellular lysates were incubated with peptide arrays representing phosphorylation targets of kinase activity for quantifying global kinase activity as previously described. The phosphorylation of the peptides on the array were quantitated in the cytokine-treated cells relative to the un-stimulated control cells after normalization and background correction of signal strength taught by Jalal et al. (2009).

For the substance “IL-17: Recombinant human cytokine IL-17A/F from eBioscience, used as stimulant”, the “Phosphorylation of p300 (Ser1834) by immunoblot” value in the assay with phospho-p300 (Ser1834) was “increased phosphorylation”. Besides, the “Phosphorylation of DAPK (Ser308) by immunoblot” value in the assay with phospho-DAPK (Ser308) was “increased phosphorylation”. Moreover, in assay [1], the “Relative Fold change in phosphorylation, APE1 (P27695) S289” value is 1.52 fold and 1.28 fold; the “Relative Fold change in phosphorylation, Akt1 (P31749) S124/9” value was −3.27 fold; the “Relative Fold change in phosphorylation, CCR5 (P51681) S336/7” value is recorded as −2.62 fold; the “Relative Fold change in phosphorylation, CTNNB1 (P35222) T41/45” value is given as −4.12 fold. For the same substance, in assay [1], the “Relative Fold change in phosphorylation, DAPK1 (P53355) S308” value was 2.19 fold and 1.45 fold; the “Relative Fold change in phosphorylation, Daxx (Q9UER7) S668/71” value is recorded as −3.45 fold; the “Relative Fold change in phosphorylation, Grb10 (Q13322) S150” value is −1.86 fold; the “Relative Fold change in phosphorylation, Kit (P10721) Y721” value is −1.75 fold. Further, in assay [1], the “Relative Fold change in phosphorylation, NFAT4 (Q12968) S163/5” value is listed as −2.22 fold; the “Relative Fold change in phosphorylation, PKACa (P17612) S338” value is listed as −1.64 fold; the “Relative Fold change in phosphorylation, STAT6 (P42226) Y641” value was −1.94 fold; the “Relative Fold change in phosphorylation, Smad3 (P84022) S422/3/5” value is reported as −2.37 fold. In assay [1], the “Relative Fold change in phosphorylation, TAK1 (O43318) T184” value is given as −2.01 fold; the “Relative Fold change in phosphorylation, axin-1 (O15169) S486” value is on record as −3.73 fold; the “Relative Fold change in phosphorylation, p53 (P04637) S6/9” value was −2.43 fold; the “Relative Fold change in phosphorylation, p300 (Q09472) S1834” value is 1.92 fold and 1.71 fold.
